Experimental data as given in patent US9228175B2, “Genes encoding a novel type of lysophophatidylcholine acyltransferases and their use to increase triacylglycerol production and/or modify fatty acid composition” (National Research Counsel of Canada, priority 2006, dated 2016).

Tests used:
[1] = target: T1, LCA1 (YOR175c) (Saccharomyces cerevisiae, UniProt Q08548); assay: In vitro assay of LPCAT activity: substrate specificity and kinetics of LCA1 (YOR175c); assay type: biochemical; settings: for Rate of acylation as % of the activity registered for LPC: [^14C] palmitoyl-CoA as acyl donor, 50 μM lysophospholipid, microsomes of lca1Δ expressing YOR175c
T1 construct: Saccharomyces cerevisiae YOR175c ORF was PCR-amplified; made in house; host or cells: S. cerevisiae YOR175c deletion strain Y02431 (lca1Δ), pYES2.1, galactose induction; microsomal fraction
T1 sequence (Q08548 1-619): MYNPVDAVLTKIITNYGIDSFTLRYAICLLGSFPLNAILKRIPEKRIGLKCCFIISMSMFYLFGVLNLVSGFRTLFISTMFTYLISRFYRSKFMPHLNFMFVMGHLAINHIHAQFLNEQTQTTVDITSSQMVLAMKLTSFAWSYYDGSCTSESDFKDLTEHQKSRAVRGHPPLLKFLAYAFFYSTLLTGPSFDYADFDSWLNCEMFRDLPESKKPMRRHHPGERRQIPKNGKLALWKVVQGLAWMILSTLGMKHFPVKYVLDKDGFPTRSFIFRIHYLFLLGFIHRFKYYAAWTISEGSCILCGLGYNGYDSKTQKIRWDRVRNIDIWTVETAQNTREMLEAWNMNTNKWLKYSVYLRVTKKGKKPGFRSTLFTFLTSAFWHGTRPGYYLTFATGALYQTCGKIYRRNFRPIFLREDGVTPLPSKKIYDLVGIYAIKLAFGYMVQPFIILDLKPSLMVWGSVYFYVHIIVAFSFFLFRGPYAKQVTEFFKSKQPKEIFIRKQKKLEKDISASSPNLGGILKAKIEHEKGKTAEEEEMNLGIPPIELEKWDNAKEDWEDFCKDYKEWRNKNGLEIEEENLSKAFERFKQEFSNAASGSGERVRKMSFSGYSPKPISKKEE
Experimental: FIG. 11 is a graph showing the substrate specificity of LCA1. The assays were performed with 3 μg microsomal protein from lca1Δ harboring an empty vector (V0) and lca1Δ expressing LCA1. The reaction contained 112.5 μm [^14C] palmitoyl-CoA (5.5 nCi/nmol) and 50 μM lysophospholipid substrate (LPA, LPC, LPE, LPG, LPI, and LPS). Reaction was allowed for two minutes with 100 rpm shaking. The results are presented as a mean of three assays.
(§1) Microsomal preparation: Yeast strains were first grown in 15 ml of SC-Leu-His-Ura medium containing 2% glucose. Protein expression induction was carried out as described in Invitrogen manufacturer manual for yeast expression vector pYES2.1. After 24 hours of growth in SC+2% galactose+1% raffinose induction conditions, the cells were washed, first with distilled water and then with wall-breaking buffer (50 mM Tris-HCl, 1 mM EDTA, 0.6 M sorbitol, pH 7.4, 1 mM DTT). After centrifugation at 4,000 rpm (Eppendorf Centrifuge 5145C), the cells were resuspended in 1 ml wall-breaking buffer with 10 μl yeast protease cocktail (Sigma), and shaken vigorously in the presence of acid-washed glass beads (diameter 0.5 mm). The resultant homogenate was centrifuged at 12,000 rpm for ten minutes at 4° C. The decanted supernatant was further centrifuged at 100,000×g for 90-120 minutes at 4° C. The supernatant was discarded, and the pellet was suspended in homogenization buffer containing 20% glycerol and frozen at −80° C. until use. Protein concentration was measured using Bio-Rad Protein Assay Kit for final enzyme activity calculation.
(§2) In Vitro Assay of LPCAT activity: LPCAT substrate specificity was determined by measuring incorporation of [^14C] lysophosphatidylcholine or [^14C] palmitoyl-CoA into phosphatidylcholine. All assays were performed at least twice. For lysophospholipid substrate specificity assessment, 400 μl HEPES buffer contained 3 μg microsomal protein, 50 μM of lysophospholipid substrates and 112.5 μM [^14C] palmitoyl-CoA (5.5 nCi/nmol). For acyl-CoA substrate selectivity analysis, 400 μl HEPES reaction buffer (pH7.4, 0.1 M) contained 3 μg microsomal protein, 50 μM acyl-CoA and 112.5 μM [^14C] […] (1.35 nCi/nmol). Reaction was allowed for 2 minutes at 30° C. with 100 rpm shaking. The reaction products were extracted with chloroform/methanol (2/1, v/v) and separated with Merck silica G60 TLC plates. Spots corresponding to different phospholipid species products were scraped off and ^14C incorporation were scintillation counted. Different concentrations of ZnCl2 were added in to reactions for Zn^2+ inhibitory effect assay.

[2] = tested on: parental (WT) yeast strain; assay: Lyso-PAF and lyso-PC sensitivity plate test, parental strain; assay type: cell-based, Saccharomyces cerevisiae; settings: plate assay
Experimental: (§3) Cells were frown first in SC-URA+2% glucose media overnight then in protein expression induction media for six hours. Cultures were diluted to OD600 value of OD600 0.5, 1, 2, 3, respectively, from which 5 μl were inoculated (from left to right) onto YPD plate containing lyso-PAF or lyso-PC. The plates were incubated at 28° C. for 36 hours.
(§4) Lyso-PAF sensitivity: Yeast strains Y02431 over-expressing LCA1 or harboring empty vector were first grown in 15 ml of SC-ura medium containing 2% glucose then transferred to SC-ura+2% galactose and 1% raffinose. After 12 hours LCA1 expression induction, the culture was diluted to correspond to OD600 value of 0.5, 1, 2, 3, 4. Five μl of each dilution was spotted to a YPD plate supplemented with varying concentrations of Lyso-PAF. The plates were incubated at 28° C. for two days.

[3] = tested on: lca1Δ yeast mutant (Y02431); assay type: cell-based, Saccharomyces cerevisiae
Experimental: as §3, §4
Lyso-PAF sensitivity: Yeast strains BY02431 carrying pYES 2.1-AtLPCATs or the empty vector were first grown in 15 ml of SC-Leu-His-ura medium containing 2% glucose. Yeast transformant strains of AtLPCATs were first grown in YPD overnight. Protein expression induction were carried out by protocol described in Invitrogen manufacturer manual for yeast expression vector pYES2.1. After 12 hours induction, 5 μl cultures were inoculated onto YPD plate with 10 μg/ml lysoPAF. The plates were incubated at 28° C. for two days. The final lysoPAF is 10/ml.

[4] = target: T2, LCA1 (Saccharomyces cerevisiae, UniProt Q08548); assay: Zn^2+ / Mg^2+ effect on LPCAT activity of LCA1 (in vitro assay, microsomes of lca1Δ over-expressing LCA1); assay type: biochemical; settings: concentration ranging from 5 to 40 μM (data not shown)
T2 construct: Saccharomyces cerevisiae YOR175c ORF was PCR-amplified; made in house; host or cells: S. cerevisiae YOR175c deletion strain Y02431 (lca1Δ), pYES2.1, galactose induction; microsomal fraction
T2 sequence (Q08548 1-619): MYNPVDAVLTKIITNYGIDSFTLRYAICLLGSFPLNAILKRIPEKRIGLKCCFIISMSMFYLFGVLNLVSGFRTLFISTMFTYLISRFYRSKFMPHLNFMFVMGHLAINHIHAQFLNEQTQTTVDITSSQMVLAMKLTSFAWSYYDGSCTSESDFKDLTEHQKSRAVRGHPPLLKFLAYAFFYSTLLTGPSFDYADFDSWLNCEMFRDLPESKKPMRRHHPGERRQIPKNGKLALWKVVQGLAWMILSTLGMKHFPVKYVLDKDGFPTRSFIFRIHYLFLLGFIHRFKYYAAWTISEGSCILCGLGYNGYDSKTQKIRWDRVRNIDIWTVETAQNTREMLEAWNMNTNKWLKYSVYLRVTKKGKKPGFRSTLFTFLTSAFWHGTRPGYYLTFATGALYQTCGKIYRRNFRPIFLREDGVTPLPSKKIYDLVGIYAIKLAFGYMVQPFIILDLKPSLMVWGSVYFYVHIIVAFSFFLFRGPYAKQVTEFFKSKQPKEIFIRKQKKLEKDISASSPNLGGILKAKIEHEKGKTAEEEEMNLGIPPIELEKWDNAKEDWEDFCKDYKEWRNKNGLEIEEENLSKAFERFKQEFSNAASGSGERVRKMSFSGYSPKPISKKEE
Experimental: as §1, §2
Results are expressed as means±S.D. The lca1Δ over-expressing LCA1 was used to assess Zn^2+ effect. The reactions contained 5.6 μM palmitoyl-LPC (1.35 nCi/nmol), 1.5 μg microsomal proteins, 0.1 M HEPES (pH 7.4), 11.25 μM stearyl-CoA and indicated concentration of ZnCl2. The reaction was stopped after two minutes by adding 2 ml of chloroform/methanol solution (2:1).

## CCCCCCCCCCCCCCCC(=O)OC[C@@H](O)COP(=O)([O-])OCC[N+](C)(C)C [LPC (16:0), palmitic (16:0)-LPC]
[1]; data not shown
  Concentration above which inhibitory effects on LPCAT activity are exerted: above 75 μM

## lysophosphatidylcholine [LPC]
[2]
  Level tolerated: up to 20 μg/ml
[3]; lca1Δ, plate assay
  Level tolerated: up to 20 μg/ml
[1]; [^14C] palmitoyl-CoA, LPA, LPC, LPE, LPG, LPI, LPS compared
  Acyltransferase activity among lysophospholipid substrates: highest activity

## lysophosphatidylglycerol [LPG]
[1]
  Rate of acylation as % of the activity registered for LPC: approximately 60%

## 1-O-alkyl-sn-glycero-3-phosphocholine [lyso-PAF]
[3]; 10 ug/ml on YPD plate
  Growth of lpcat yeast mutant: incapable of growth
[3]; lca1Δ mutant, plate assay
  Concentration above which hypersensitivity is displayed: above 5 μg/ml

## [Mg+2] [Mg^2+]
[4]
  Effect on LPCAT activity of LCA1: did not detect significant effect

## lysophosphatidylethanolamine [LPE]
[1]
  Rate of acylation as % of the activity registered for LPC: ~20%

B1: LCA1: yeast (S. cerevisiae) LPC acyltransferase encoded by YOR175c, SEQ ID NO:2 (protein, listed as Saccharomyces cerevisiae)
chain: MYNPVDAVLTKIITNYGIDSFTLRYAICLLGSFPLNAILKRIPEKRIGLKCCFIISMSMFYLFGVLNLVSGFRTLFISTMFTYLISRFYRSKFMPHLNFMFVMGHLAINHIHAQFLNEQTQTTVDITSSQMVLAMKLTSFAWSYYDGSCTSESDFKDLTEHQKSRAVRGHPPLLKFLAYAFFYSTLLTGPSFDYADFDSWLNCEMFRDLPESKKPMRRHHPGERRQIPKNGKLALWKVVQGLAWMILSTLGMKHFPVKYVLDKDGFPTRSFIFRIHYLFLLGFIHRFKYYAAWTISEGSCILCGLGYNGYDSKTQKIRWDRVRNIDIWTVETAQNTREMLEAWNMNTNKWLKYSVYLRVTKKGKKPGFRSTLFTFLTSAFWHGTRPGYYLTFATGALYQTCGKIYRRNFRPIFLREDGVTPLPSKKIYDLVGIYAIKLAFGYMVQPFIILDLKPSLMVWGSVYFYVHIIVAFSFFLFRGPYAKQVTEFFKSKQPKEIFIRKQKKLEKDISASSPNLGGILKAKIEHEKGKTAEEEEMNLGIPPIELEKWDNAKEDWEDFCKDYKEWRNKNGLEIEEENLSKAFERFKQEFSNAASGSGERVRKMSFSGYSPKPISKKEE
[1]; Lineweaver-Burk double-reciprocal plot
  Vmax: 524 pmol/min/μg protein
[1]; Lineweaver-Burk double-reciprocal plot, read-out: apparent Km for acyl-CoA
  Km: 890 ± 250 nM
[1]; lyso-PAF as acyl acceptor
  Increase in lyso-PAF acyltransferase activity on over-expression: 86.3 fold
